Measurements published in US8012949B2, “Bisphosphonate compounds and methods with enhanced potency for multiple targets including FPPS, GGPPS, and DPPS” (The Board of Trustees of the University of Illinois, priority 2004, dated 2011).
Like-named read-outs stand apart in the source and are kept apart here.

Tests used:
human DPPS = target: T1, human DPPS (Homo sapiens, UniProt Q5T2R2); assay: human DPPS enzyme inhibition; format: biochemical; conditions: Table 1, experimental
T1 construct: made in house
T1 sequence (Q5T2R2 1-415): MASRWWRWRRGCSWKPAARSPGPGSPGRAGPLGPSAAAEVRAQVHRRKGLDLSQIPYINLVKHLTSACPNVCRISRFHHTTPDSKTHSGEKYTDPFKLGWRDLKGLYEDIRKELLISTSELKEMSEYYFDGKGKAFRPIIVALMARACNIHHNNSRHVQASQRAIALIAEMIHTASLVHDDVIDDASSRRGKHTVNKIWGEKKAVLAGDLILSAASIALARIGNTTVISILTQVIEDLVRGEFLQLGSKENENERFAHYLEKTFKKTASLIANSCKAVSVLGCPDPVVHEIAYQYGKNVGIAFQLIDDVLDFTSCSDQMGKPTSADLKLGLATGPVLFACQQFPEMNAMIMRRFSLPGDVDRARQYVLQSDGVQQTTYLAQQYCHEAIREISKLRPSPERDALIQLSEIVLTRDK
T1 sequence (Q86YH6 1-399 partner): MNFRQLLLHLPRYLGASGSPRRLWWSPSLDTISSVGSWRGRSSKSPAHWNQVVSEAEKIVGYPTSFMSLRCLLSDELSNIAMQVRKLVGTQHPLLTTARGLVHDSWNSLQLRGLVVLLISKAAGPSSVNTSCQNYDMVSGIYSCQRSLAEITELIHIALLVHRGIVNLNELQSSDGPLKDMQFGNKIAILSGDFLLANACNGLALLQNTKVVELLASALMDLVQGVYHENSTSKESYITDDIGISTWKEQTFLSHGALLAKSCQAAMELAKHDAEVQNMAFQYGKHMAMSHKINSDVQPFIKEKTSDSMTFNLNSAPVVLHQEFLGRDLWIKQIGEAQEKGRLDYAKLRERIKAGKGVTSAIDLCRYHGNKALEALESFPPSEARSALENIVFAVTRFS
Excerpt: To test our polypharmaceutical hypothesis, we expressed three enzymes: human FPPS, GGPPS and DPPS, and tested each for their inhibition by a series of bisphosphonates.

[1] = system: NCI-H460 (lung large cell); assay: NCI-H460 cell growth inhibition (MTT); format: cell-based, human; conditions: Table 1, experimental
Excerpt: (§1) Cell Growth Inhibition Assays. […] A broth microdilution method was used to determine IC50 values for growth inhibition by each bisphosphonate. […] NBPs were typically initially dissolved in H2O (0.01 M) while NNBPs were typically dissolved in DMSO (0.01 M).
(§2) GraphPad PRISM® version 4.0 software for windows (GraphPad Software Inc., San Diego, Calif., www.graphpad.com) was used to fit the data to a rectangular hyperbolic function: I=(ImaxC)/(IC50+C); […]

[2] = system: MCF-7 (breast adenocarcinoma); assay: MCF-7 cell growth inhibition (MTT), incl. FOH/GGOH rescue; format: cell-based, human; conditions: for MCF7 Cell pIC50: Table 3, determined in this work; for IC50: Homo sapiens
Excerpt: as §1
GraphPad PRISM® version 4.0 software for windows (GraphPad Software Inc., San Diego, Calif., www.graphpad.com) was used to fit the data to a rectangular hyperbolic function: I=(ImaxC)/(IC50+C);
For the “rescue” experiments, stock solutions of FOH or GGOH were prepared (in ethanol) and the requisite amounts added to the incubation media to produce a fixed 20 μM concentration.

[3] = system: SF-268 (central nervous system glioblastoma); assay: SF-268 cell growth inhibition (MTT); format: cell-based, human; conditions: Table 1, experimental
Excerpt: as §1, §2

Vγ2Vδ2 T cells = assay: γδ T cell activation (TNF-α release and proliferation); format: cell-based, human; conditions: Table 2, -log10(value, M); for EC50: Homo sapiens, T-cell, read-out: γδ T Cell Avg pED50 (converted)
Experimental: γδ T Cell Assays. Vγ2Vδ2 T cell TNF-α release and proliferation were performed basically as described previously^1. Briefly, to measure bioactivity for Vγ2Vδ2 T cells, the CD4^+ JN.24, CD4^+ HF.2, CD8αα^+ 12G12, or the CD4^−8^− HD.108 Vγ2Vδ2 T cell clones were stimulated with phosphoantigens in the presence of CP.EBV (an EBV transformed B cell line) for CD4^+ clones or Va-2 (a transformed fibroblast) for CD8αα^+ and CD4^−8^− clones. CP.EBV and Va-2 were fixed with 0.05% glutaraldehyde (EM grade, Sigma, Mo.) for use as APCs. […] Curve fitting minima for each experiment (e.g. TNF-α release from JN.24 cells) were determined using the Global Fitting technique, as implemented in Prism 4.0. Curve fitting maxima were optimized for each individual compound without the use of any constraints.

[4] = MCF7, Table 1, experimental, read-out: MCF-7 pIC50 (converted)
[5] = MCF7, Table 2, -log10(value, M), read-out: MCF-7 Cell pIC50 (converted)

Row | SMILES | MCF7 Cell pIC50 [2] | MCF-7 Cell pIC50 (M) ([2]; Table 2, -log10(value, M)) | γδ T Cell Avg pED50 (M) (Vγ2Vδ2 T cells) | other results
1 | NCCCC(O)(P(=O)(O)O)P(=O)(O)O [BPH-1, reference compound] | 3.31 |  |  | DPPS pKi (human DPPS): 6.3; NCI-H460 pIC50 (M) [1]: 3.5 M; MCF-7 pIC50 (M) ([2]; Table 1, experimental): 3.3 M; SF-268 pIC50 (M) [3]: 3.5 M
2 | O=P(O)(O)C(O)(Cc1cccnc1)P(=O)(O)O [BPH-2] |  | 3.13 | 4.29 | DPPS pKi (human DPPS): 7.3; NCI-H460 pIC50 (M) [1]: 3.7 M; MCF-7 pIC50 (M) ([2]; Table 1, experimental): 3.8 M; SF-268 pIC50 (M) [3]: 3.9 M
3 | NCCC(O)(P(=O)(O)O)P(=O)(O)O [BPH-5, reference compound] | 3.85 |  |  | DPPS pKi (human DPPS): 6.3; NCI-H460 pIC50 (M) [1]: 4.0 M; MCF-7 pIC50 (M) ([2]; Table 1, experimental): 3.9 M; SF-268 pIC50 (M) [3]: 3.5 M
4 | O=P(O)(O)C(O)(Cc1c[nH]cn1)P(=O)(O)O [BPH-18, reference compound] | 5.41 |  |  | 
5 | CCCCCN(C)CCC(O)(P(=O)(O)O)P(=O)(O)O [BPH-24, reference compound] |  |  |  | DPPS pKi (human DPPS): 7.3; NCI-H460 pIC50 (M) [1]: 3.7 M; MCF-7 pIC50 (M) ([2]; Table 1, experimental): 3.7 M; SF-268 pIC50 (M) [3]: 3.8 M
6 | O=P(O)(O)C(NC1CCCCCC1)P(=O)(O)O [BPH-31, reference compound] | 4.30 |  |  | 
7 | O=P(O)(O)C(N1CCCCCC1)P(=O)(O)O [BPH-57, reference compound] | 3.60 |  |  | 
8 | O=P(O)(O)C(Cc1nccs1)P(=O)(O)O [BPH-58, reference compound] | 3.48 |  |  | 
9 | O=P(O)(O)C(N1CCCCC1)P(=O)(O)O [BPH-72, reference compound] | 3.34 |  |  | 
10 | O=P(O)(O)C(O)(Cn1ccnc1)P(=O)(O)O [BPH-91, reference compound] | 4.81 |  |  | DPPS pKi (human DPPS): 7.4; NCI-H460 pIC50 (M) [1]: 4.8 M; MCF-7 pIC50 (M) ([2]; Table 1, experimental): 4.7 M; SF-268 pIC50 (M) [3]: 4.8 M
11 | CN(CCc1ccccc1)CCC(O)(P(=O)(O)O)P(=O)(O)O [BPH-208, reference compound] | 4.38 |  |  | 
12 | CN(CCCc1ccccc1)CCC(O)(P(=O)(O)O)P(=O)(O)O [BPH-209, reference compound] | 4.01 |  |  | 
13 | CN(CCCCc1ccccc1)CCC(O)(P(=O)(O)O)P(=O)(O)O [BPH-210, reference compound] | 4.08 |  |  | 
14 | CN(CCOc1ccccc1)CCC(O)(P(=O)(O)O)P(=O)(O)O [BPH-219, reference compound] | 4.93 |  |  | 
15 | O=P(O)(O)C(O)(Cc1cnc2ccccn12)P(=O)(O)O [BPH-261] |  |  |  | DPPS pKi (human DPPS): 6.8; NCI-H460 pIC50 (M) [1]: 4.8 M; MCF-7 pIC50 (M) ([2]; Table 1, experimental): 4.8 M; SF-268 pIC50 (M) [3]: 4.9 M
16 | O=P(O)(O)C(Cc1cccnc1)P(=O)(O)O [BPH-290] |  | 3.47 | 4.21 | 
17 | O=P(O)(O)C(O)(C[n+]1cccc(F)c1)P(=O)(O)O [BPH-461, 3-fluoro-1-(2-hydroxy-2,2-bisphosphonoethyl)-pyridinium] |  | 4.34 | 4.16 | 
18 | O=P([O-])(O)C(C[n+]1ccccc1)P(=O)(O)O (stereo not drawn) [BPH-470] |  | 4.14 | 4.12 | 
19 | CCc1ccc[n+](CC(P(=O)([O-])O)P(=O)(O)O)c1 (stereo not drawn) [BPH-475] |  | 4.37 | 3.94 | 
20 | CCCCc1ccc[n+](CC(P(=O)([O-])O)P(=O)(O)O)c1 (stereo not drawn) [BPH-476] |  | 4.58 | 4.00 | 

Row | SMILES | MCF7 Cell pIC50 [2] | MCF-7 Cell pIC50 (M) ([2]; Table 2, -log10(value, M)) | γδ T Cell Avg pED50 (M) (Vγ2Vδ2 T cells) | other results
21 | O=P([O-])(O)C(C[n+]1cccc(F)c1)P(=O)(O)O (stereo not drawn) [BPH-477] |  | 4.77 | 3.80 | 
22 | O=P([O-])(O)C(C[n+]1cccc(Cc2ccccc2)c1)P(=O)(O)O (stereo not drawn) [BPH-480] |  | 3.42 | 3.33 | 
23 | O=P([O-])(O)C(C[n+]1ccc(Cc2ccccc2)cc1)P(=O)(O)O (stereo not drawn) [BPH-481] |  | 3.90 | 3.45 | 
24 | CC(C)(C)C(=O)OCOP(=O)(O)C(C[n+]1ccccc1)P(=O)([O-])O (stereo not drawn) [BPH-656] |  | 4.88 | 4.29 | 
25 | CC(C)(C)C(=O)OCOP(=O)(O)C(C[n+]1cccc(F)c1)P(=O)([O-])O (stereo not drawn) [BPH-669] |  | 4.75 | 4.49 | 
26 | CC(C)(C)C(=O)OCOP(=O)(O)C(O)(C[n+]1cccc(F)c1)P(=O)([O-])O (stereo not drawn) [BPH-670] |  | 4.64 | 4.16 | 
27 | CCCCCCCCCCCCc1ccc[n+](CC(P(=O)([O-])O)P(=O)(O)O)c1 (stereo not drawn) [BPH-677] |  | 4.34 | 4.88 | 
28 | O=P([O-])(O)C(C[S+]1CCCC1)P(=O)(O)O (stereo not drawn) [BPH-682] |  | 4.02 | 3.84 | 
29 | CCCCCCCC[S+](C)CC(P(=O)([O-])O)P(=O)(O)O (stereo not drawn) [BPH-683] |  |  |  | Ki (human DPPS; read-out: DPPS_pKi (converted)): 0.0631 µM; IC50 ([1]; Homo sapiens, NCI-H460, read-out: NCI-H460 pIC50 (converted)): 15.8 µM; IC50 [2, 4]: 20 µM; IC50 [2, 5]: 6.76 µM; EC50 (Vγ2Vδ2 T cells): 107 µM; IC50 ([3]; Homo sapiens, SF-268, read-out: SF-268 pIC50 (converted)): 12.6 µM
30 | CCC[S+](C)CC(P(=O)([O-])O)P(=O)(O)O (stereo not drawn) [BPH-685] |  | 4.02 | 3.81 | DPPS pKi (human DPPS): 6.7; NCI-H460 pIC50 (M) [1]: 3.9 M; MCF-7 pIC50 (M) ([2]; Table 1, experimental): 3.6 M; SF-268 pIC50 (M) [3]: 3.7 M
31 | C[S+](CCCc1ccccc1)CC(P(=O)([O-])O)P(=O)(O)O (stereo not drawn) [BPH-686] |  | 4.24 | 3.81 | 
32 | CCCCCCCCCC[S+](C)CC(P(=O)([O-])O)P(=O)(O)O (stereo not drawn) [BPH-687] |  | 6.20 | 5.09 | 
33 | CCCCCCCCCCCC[S+](C)CC(P(=O)([O-])O)P(=O)(O)O (stereo not drawn) [BPH-688] |  |  |  | IC50 [2, 4]: 6.31 µM; IC50 [2, 5]: 0.501 µM; EC50 (Vγ2Vδ2 T cells): 5.62 µM
34 | CCCN(C)CC(P(=O)(O)O)P(=O)(O)O [BPH-693] |  | 5.32 | 5.28 | 
35 | CCCCCCCCCCCCCCCC[S+](C)CC(P(=O)([O-])O)P(=O)(O)O (stereo not drawn) [BPH-695] |  | 5.95 | 5.68 | 
36 | CCCCCCCCCCCCCCCCCC[S+](C)CC(P(=O)([O-])O)P(=O)(O)O (stereo not drawn) [BPH-696] |  | 5.85 | 4.63 | 
37 | CCCCCCCCOc1ccc[n+](CC(P(=O)([O-])O)P(=O)(O)O)c1 (stereo not drawn) [BPH-714] |  | 6.82 | 5.29 | 
38 | CCCCOc1ccc[n+](CC(P(=O)([O-])O)P(=O)(O)O)c1 (stereo not drawn) [BPH-721] |  | 4.70 | 4.10 | 
39 | CCCCCCOc1ccc[n+](CC(P(=O)([O-])O)P(=O)(O)O)c1 (stereo not drawn) [BPH-723] |  | 5.76 | 4.44 | 
40 | NCCC(O)(P(=O)(O)O)P(=O)(O)O [pamidronate, reference compound] |  |  |  | IC50 ([2]; MCF7, FIG. 2A, read-out: IC50, MCF-7 tumor cell growth inhibition): ~300 µM
